Experiments:
Type in all cases: in vivo
[1] = system: ragweed (common ragweed, Ambrosia artemisiifolia); experiment: Test C preemergence, visual plant response rating
Method in brief: (§1)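 Visual injury on a 0 (no effect) to 100 (complete control) scale versus untreated controls, scored approximately 10 d after treatment under greenhouse conditions. Treatments used surfactant-containing non-phytotoxic solvent formulations, sprayed onto loam–sand soil preemergence or onto one- to two-leaf plants 2–10 cm tall postemergence.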

[2] = system: Italian ryegrass (Lolium mutiflorum); experiment: Test C preemergence, visual plant response rating
Method in brief: as §1

kochia (Bassia scoparia) [3] = experiment: Test C preemergence, visual plant response rating
Method in brief: as §1

[4] = system: foxtail, giant (giant foxtail, Setaria faberi); experiment: Test C preemergence, visual plant response rating
Method in brief: as §1

[5] = system: barnyardgrass (Echinochloa crus-galli); experiment: Test C preemergence, visual plant response rating
Method in brief: as §1

[6] = system: pigweed (Amaranthus retroflexus); experiment: Test C preemergence, visual plant response rating
Method in brief: as §1

[7] = system: ragweed (common ragweed, Ambrosia artemisiifolia); experiment: Test C postemergence, visual plant response rating
Method in brief: as §1

[8] = system: Italian ryegrass (Lolium mutiflorum); experiment: Test C postemergence, visual plant response rating
Method in brief: as §1

kochia (Bassia scoparia) [9] = experiment: Test C postemergence, visual plant response rating
Method in brief: as §1

[10] = system: galium (catchweed bedstraw, Galium aparine); experiment: Test C postemergence, visual plant response rating
Method in brief: as §1

[11] = system: foxtail, giant (giant foxtail, Setaria faberi); experiment: Test C postemergence, visual plant response rating
Method in brief: as §1

[12] = system: wheat (Triticum aestivum); experiment: Test C postemergence, visual plant response rating
Method in brief: as §1

[13] = system: barnyardgrass (Echinochloa crus-galli); experiment: Test C postemergence, visual plant response rating
Method in brief: as §1

corn (Zea mays) = experiment: Test C postemergence, visual plant response rating
Method in brief: as §1

[14] = system: blackgrass (Alopecurus myosuroides); experiment: Test C postemergence, visual plant response rating
Method in brief: as §1

[15] = system: pigweed (Amaranthus retroflexus); experiment: Test C postemergence, visual plant response rating
Method in brief: as §1

rice (Oryza sativa) = experiment: Test D flooded paddy test, visual plant response rating; conditions: 250 g ai/ha, scale 0 to 100 (0 no effect, 100 complete control), 13 to 15 d
Method in brief: (§2)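 Rating is visual, on a 0 (no effect) to 100 (complete control) scale versus controls, taken 13 to 15 d after treatment in a greenhouse. Treatment went into paddy water kept 3 cm above the soil surface, with plants at the 2-leaf stage.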

[16] = system: sedge umbrella (small-flower umbrella sedge, Cyperus difformis); experiment: as above; conditions: 250 g ai/ha, scale 0 to 100 (0 no effect, 100 complete control), 13 to 15 d
Method in brief: as §2

[17] = system: duck salad (Heteranthera limosa); experiment: as above; conditions: 250 g ai/ha, scale 0 to 100 (0 no effect, 100 complete control), 13 to 15 d
Method in brief: as §2

[18] = system: barnyardgrass (Echinochloa crus-galli); experiment: as above; conditions: 250 g ai/ha, scale 0 to 100 (0 no effect, 100 complete control), 13 to 15 d
Method in brief: as §2

[19] = Test C, 31 g ai/ha, 0 is no effect, 100 is complete control
[20] = Test C, 125 g ai/ha, 0 is no effect, 100 is complete control
[21] = Test C, postemergence, 125 g ai/ha
[22] = Test C, postemergence, 1000 g ai/ha

C#CCO/N=C(\c1cccc(/C=C/Cl)c1)c1c(O)c(C)nn(C)c1=O [Compound 254]
Ragweed plant response rating (0 to 100 scale) [1, 19]: 40
Ragweed plant response rating (0 to 100 scale) [1, 20]: 90
Ryegrass, Italian plant response rating (0 to 100 scale) [2, 19]: 20
Ryegrass, Italian plant response rating (0 to 100 scale) [2, 20]: 60
Kochia plant response rating (0 to 100 scale) (kochia (Bassia scoparia) [3]; [19]): 0
Kochia plant response rating (0 to 100 scale) (kochia (Bassia scoparia) [3]; [20]): 0
Foxtail, Giant plant response rating (0 to 100 scale) [4, 19]: 0
Foxtail, Giant plant response rating (0 to 100 scale) [4, 20]: 40
Barnyardgrass plant response rating (0 to 100 scale) [5, 19]: 0
Barnyardgrass plant response rating (0 to 100 scale) [5, 20]: 0
Pigweed plant response rating (0 to 100 scale) [6, 19]: 0
Pigweed plant response rating (0 to 100 scale) [6, 20]: 10
Ragweed plant response rating (0 to 100 scale) ([7]; Postemergence, 31 g ai/ha): 30
Ragweed plant response rating (0 to 100 scale) [7, 21]: 50
Ryegrass, Italian plant response rating (0 to 100 scale) ([8]; Postemergence, 31 g ai/ha): 20
Ryegrass, Italian plant response rating (0 to 100 scale) [8, 21]: 70
Kochia plant response rating (0 to 100 scale) (kochia (Bassia scoparia) [9]; Postemergence, 31 g ai/ha): 50
Kochia plant response rating (0 to 100 scale) (kochia (Bassia scoparia) [9]; [21]): 70
Galium plant response rating (0 to 100 scale) ([10]; Postemergence, 31 g ai/ha): 0
Galium plant response rating (0 to 100 scale) [10, 21]: 40
Foxtail, Giant plant response rating (0 to 100 scale) ([11]; Postemergence, 31 g ai/ha): 20
Foxtail, Giant plant response rating (0 to 100 scale) [11, 21]: 60
Wheat plant response rating (0 to 100 scale) ([12]; Postemergence, 31 g ai/ha): 30
Wheat plant response rating (0 to 100 scale) [12, 21]: 60
Barnyardgrass plant response rating (0 to 100 scale) ([13]; Postemergence, 31 g ai/ha): 30
Barnyardgrass plant response rating (0 to 100 scale) [13, 21]: 50
Corn plant response rating (0 to 100 scale) (corn (Zea mays); Postemergence, 31 g ai/ha): 0
Corn plant response rating (0 to 100 scale) (corn (Zea mays); [21]): 10
Blackgrass plant response rating (0 to 100 scale) ([14]; Postemergence, 31 g ai/ha): 10
Blackgrass plant response rating (0 to 100 scale) [14, 21]: 70
Pigweed plant response rating (0 to 100 scale) ([15]; Postemergence, 31 g ai/ha): 20
Pigweed plant response rating (0 to 100 scale) [15, 21]: 70
Plant response rating, Rice (Flood) (rice (Oryza sativa)): 0
Plant response rating, Sedge, Umbrella (Flood) [16]: 0
Plant response rating, Ducksalad (Flood) [17]: 0
Plant response rating, Barnyardgrass (Flood) [18]: 0

CC(C)O/N=C(\c1c(O)cnn(C)c1=O)c1cccc2ccccc12 [Compound 222]
Ragweed plant response rating (0 to 100 scale) ([1]; 1000 g ai/ha): 50
Ryegrass, Italian plant response rating (0 to 100 scale) ([2]; 1000 g ai/ha): 0
Kochia plant response rating (0 to 100 scale) (kochia (Bassia scoparia) [3]; 1000 g ai/ha): 0
Foxtail, Giant plant response rating (0 to 100 scale) ([4]; 1000 g ai/ha): 50
Barnyardgrass plant response rating (0 to 100 scale) ([5]; 1000 g ai/ha): 0
Pigweed plant response rating (0 to 100 scale) ([6]; 1000 g ai/ha): 100
Ragweed plant response rating (0 to 100 scale) [7, 22]: 50
Ryegrass, Italian plant response rating (0 to 100 scale) [8, 22]: 0
Kochia plant response rating (0 to 100 scale) (kochia (Bassia scoparia) [9]; [22]): 0
Galium plant response rating (0 to 100 scale) [10, 22]: 90
Foxtail, Giant plant response rating (0 to 100 scale) [11, 22]: 20
Wheat plant response rating (0 to 100 scale) [12, 22]: 0
Barnyardgrass plant response rating (0 to 100 scale) [13, 22]: 10
Corn plant response rating (0 to 100 scale) (corn (Zea mays); [22]): 0
Blackgrass plant response rating (0 to 100 scale) [14, 22]: 0
Pigweed plant response rating (0 to 100 scale) [15, 22]: 90
Plant response rating, Rice (Flood) (rice (Oryza sativa)): 0
Plant response rating, Sedge, Umbrella (Flood) [16]: 0
Plant response rating, Ducksalad (Flood) [17]: 0
Plant response rating, Barnyardgrass (Flood) [18]: 0

CON=C(c1ccc(F)c(Br)c1)c1c(O)c(C)nn(C)c1=O [Compound 177]
Ragweed plant response rating (0 to 100 scale) ([1]; 125 g ai/ha): 20
Ragweed plant response rating (0 to 100 scale) [1, 19]: 0
Ryegrass, Italian plant response rating (0 to 100 scale) ([2]; 125 g ai/ha): 10
Ryegrass, Italian plant response rating (0 to 100 scale) [2, 19]: 0
Kochia plant response rating (0 to 100 scale) (kochia (Bassia scoparia) [3]; 125 g ai/ha): 0
Kochia plant response rating (0 to 100 scale) (kochia (Bassia scoparia) [3]; [19]): 0
Foxtail, Giant plant response rating (0 to 100 scale) ([4]; 125 g ai/ha): 10
Foxtail, Giant plant response rating (0 to 100 scale) [4, 19]: 0
Barnyardgrass plant response rating (0 to 100 scale) ([5]; 125 g ai/ha): 60
Barnyardgrass plant response rating (0 to 100 scale) [5, 19]: 40
Pigweed plant response rating (0 to 100 scale) ([6]; 125 g ai/ha): 10
Pigweed plant response rating (0 to 100 scale) [6, 19]: 0
Ragweed plant response rating (0 to 100 scale) ([7]; Postemergence, 31 g ai/ha): 20
Ragweed plant response rating (0 to 100 scale) [7, 21]: 60
Ryegrass, Italian plant response rating (0 to 100 scale) ([8]; Postemergence, 31 g ai/ha): 30
Ryegrass, Italian plant response rating (0 to 100 scale) [8, 21]: 60
Kochia plant response rating (0 to 100 scale) (kochia (Bassia scoparia) [9]; Postemergence, 31 g ai/ha): 10
Kochia plant response rating (0 to 100 scale) (kochia (Bassia scoparia) [9]; [21]): 70
Galium plant response rating (0 to 100 scale) ([10]; Postemergence, 31 g ai/ha): 40
Galium plant response rating (0 to 100 scale) [10, 21]: 80
Foxtail, Giant plant response rating (0 to 100 scale) ([11]; Postemergence, 31 g ai/ha): 10
Foxtail, Giant plant response rating (0 to 100 scale) [11, 21]: 10
Wheat plant response rating (0 to 100 scale) ([12]; Postemergence, 31 g ai/ha): 0
Wheat plant response rating (0 to 100 scale) [12, 21]: 0
Barnyardgrass plant response rating (0 to 100 scale) ([13]; Postemergence, 31 g ai/ha): 0
Barnyardgrass plant response rating (0 to 100 scale) [13, 21]: 20
Corn plant response rating (0 to 100 scale) (corn (Zea mays); Postemergence, 31 g ai/ha): 0
Corn plant response rating (0 to 100 scale) (corn (Zea mays); [21]): 0
Blackgrass plant response rating (0 to 100 scale) ([14]; Postemergence, 31 g ai/ha): 0
Blackgrass plant response rating (0 to 100 scale) [14, 21]: 0
Pigweed plant response rating (0 to 100 scale) ([15]; Postemergence, 31 g ai/ha): 40
Pigweed plant response rating (0 to 100 scale) [15, 21]: 60
Plant response rating, Rice (Flood) (rice (Oryza sativa)): 0
Plant response rating, Sedge, Umbrella (Flood) [16]: 0
Plant response rating, Ducksalad (Flood) [17]: 0
Plant response rating, Barnyardgrass (Flood) [18]: 0

CON=C(c1cc(F)cc(F)c1F)c1c(O)c(C)nn(C)c1=O [Compound 227]
Ragweed plant response rating (0 to 100 scale) [1, 19]: 20
Ragweed plant response rating (0 to 100 scale) [1, 20]: 80
Ryegrass, Italian plant response rating (0 to 100 scale) [2, 19]: 30
Ryegrass, Italian plant response rating (0 to 100 scale) [2, 20]: 60
Kochia plant response rating (0 to 100 scale) (kochia (Bassia scoparia) [3]; [19]): 0
Kochia plant response rating (0 to 100 scale) (kochia (Bassia scoparia) [3]; [20]): 10
Foxtail, Giant plant response rating (0 to 100 scale) [4, 19]: 0
Foxtail, Giant plant response rating (0 to 100 scale) [4, 20]: 30
Barnyardgrass plant response rating (0 to 100 scale) [5, 19]: 0
Barnyardgrass plant response rating (0 to 100 scale) [5, 20]: 20
Pigweed plant response rating (0 to 100 scale) [6, 19]: 0
Pigweed plant response rating (0 to 100 scale) [6, 20]: 10
Ragweed plant response rating (0 to 100 scale) ([7]; Postemergence, 31 g ai/ha): 20
Ragweed plant response rating (0 to 100 scale) [7, 21]: 50
Ryegrass, Italian plant response rating (0 to 100 scale) ([8]; Postemergence, 31 g ai/ha): 20
Ryegrass, Italian plant response rating (0 to 100 scale) [8, 21]: 40
Kochia plant response rating (0 to 100 scale) (kochia (Bassia scoparia) [9]; Postemergence, 31 g ai/ha): 30
Kochia plant response rating (0 to 100 scale) (kochia (Bassia scoparia) [9]; [21]): 70
Galium plant response rating (0 to 100 scale) ([10]; Postemergence, 31 g ai/ha): 60
Galium plant response rating (0 to 100 scale) [10, 21]: 80
Foxtail, Giant plant response rating (0 to 100 scale) ([11]; Postemergence, 31 g ai/ha): 0
Foxtail, Giant plant response rating (0 to 100 scale) [11, 21]: 0
Wheat plant response rating (0 to 100 scale) ([12]; Postemergence, 31 g ai/ha): 0
Wheat plant response rating (0 to 100 scale) [12, 21]: 0
Barnyardgrass plant response rating (0 to 100 scale) ([13]; Postemergence, 31 g ai/ha): 0
Barnyardgrass plant response rating (0 to 100 scale) [13, 21]: 20
Corn plant response rating (0 to 100 scale) (corn (Zea mays); Postemergence, 31 g ai/ha): 0
Corn plant response rating (0 to 100 scale) (corn (Zea mays); [21]): 0
Blackgrass plant response rating (0 to 100 scale) ([14]; Postemergence, 31 g ai/ha): 0
Blackgrass plant response rating (0 to 100 scale) [14, 21]: 0
Pigweed plant response rating (0 to 100 scale) ([15]; Postemergence, 31 g ai/ha): 30
Pigweed plant response rating (0 to 100 scale) [15, 21]: 50
Plant response rating, Rice (Flood) (rice (Oryza sativa)): 0
Plant response rating, Sedge, Umbrella (Flood) [16]: 0
Plant response rating, Ducksalad (Flood) [17]: 0
Plant response rating, Barnyardgrass (Flood) [18]: 0
